Data taken from US7763636B2, “N-(arylalkyl)-1H-pyrrolopyridine-2-carboxamide derivatives, preparation and therapeutic use thereof” (Sanofi-Aventis, priority 2005, dated 2010).

Assays:
TRPV1 receptors = molecular target: T1, TRPV1 receptors (Mus musculus, UniProt Q704Y3); assay: Test of mouse corneal irritation (capsaicin ocular instillation); format: in vivo; conditions: 1 mg/kg (po), pretreatment time t = 1 h, n = 10, 2 μl of 160 μM capsaicin in the eye, rubbing counted for 2 min
T1 construct: from tissue; host or cells: cornea of the living mouse (C fibres)
Protocol: Test of Mouse Corneal Irritation
The irritant nature of capsaicin is readily assessed on the cornea since this organ is one of the organs most densely innervated with C fibres. In this context, from preliminary experiments, the application of a very small amount of capsaicin (2 μl at a concentration of 160 μM) to the surface of the cornea of an animal leads to a certain number of stereotypical behavioral traits associated with irritation, which are easy to record. Among these, the following are noted: blinking of the eye, rubbing of the instilled eye with the ipsilateral front paw, rubbing of the face with both front paws, scratching of the ipsilateral face with the hind paw. […] Its aspect is moreover also normal. […]
In practice, the test product is administered orally and, with a delay (pretreatment time: t) that depends on the pharmacokinetic data, the animal receives an ocular instillation of 2 μl of a 160 μM capsaicin solution prepared as indicated above. During a 2-minute observation following the instillation, the number of times the instilled eye is rubbed with the ipsilateral front paw is recorded.
For a given animal, the percentage of protection is calculated as follows: P=100−((number of scratching actions observed/mean number of scratching actions for the group treated with the solvent)×100) […]

T1 sequence (Q704Y3 whole entry): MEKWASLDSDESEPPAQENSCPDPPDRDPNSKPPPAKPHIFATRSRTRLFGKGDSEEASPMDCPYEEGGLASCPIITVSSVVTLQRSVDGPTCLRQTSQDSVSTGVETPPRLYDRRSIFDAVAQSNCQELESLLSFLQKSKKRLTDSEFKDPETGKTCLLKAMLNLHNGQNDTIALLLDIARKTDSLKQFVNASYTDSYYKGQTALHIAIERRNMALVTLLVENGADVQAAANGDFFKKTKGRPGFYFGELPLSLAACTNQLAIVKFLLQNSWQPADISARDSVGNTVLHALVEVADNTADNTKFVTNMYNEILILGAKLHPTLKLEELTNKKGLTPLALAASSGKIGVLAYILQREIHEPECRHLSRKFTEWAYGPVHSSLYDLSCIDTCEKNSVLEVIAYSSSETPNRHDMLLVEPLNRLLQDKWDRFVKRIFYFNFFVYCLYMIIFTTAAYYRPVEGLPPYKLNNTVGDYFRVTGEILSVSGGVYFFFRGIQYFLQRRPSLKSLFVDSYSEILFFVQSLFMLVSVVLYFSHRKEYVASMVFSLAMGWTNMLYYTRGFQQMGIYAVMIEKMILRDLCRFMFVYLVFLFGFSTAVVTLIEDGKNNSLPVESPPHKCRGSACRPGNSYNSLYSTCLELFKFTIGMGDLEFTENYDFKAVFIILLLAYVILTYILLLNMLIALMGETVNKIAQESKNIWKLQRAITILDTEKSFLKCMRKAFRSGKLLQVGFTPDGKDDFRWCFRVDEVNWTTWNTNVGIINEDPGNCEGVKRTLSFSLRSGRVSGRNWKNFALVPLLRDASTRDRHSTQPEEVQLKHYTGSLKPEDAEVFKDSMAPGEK

melting point	SMILES	% P (percentage of protection) (TRPV1 receptors)
229 to 231 °C	Cn1ccc2cc(NC(=O)c3cc4cc(C(F)(F)F)cnc4n3Cc3cccc(F)c3)ccc21	
226 to 228 °C	Cc1nc2cc(NC(=O)c3cc4cc(F)cnc4n3Cc3cccc(F)c3)ccc2n1C	
263 to 264 °C	Cc1nc2cc(NC(=O)c3cc4cnccc4n3Cc3cccc(F)c3)ccc2n1C	
245 to 247 °C	Cc1nc2cc(NC(=O)c3cc4ncccc4n3Cc3cccc(F)c3)ccc2n1C	
240 to 242 °C	Cc1nc2cc(NC(=O)c3cc4cc(Cl)ncc4n3Cc3cccc(F)c3)ccc2n1C	

More lines, now with the values behind:

SMILES	melting point	% P (percentage of protection) (TRPV1 receptors)
Cn1ccc2cc(NC(=O)c3cc4ccncc4n3Cc3cccc(F)c3)ccc21	213 to 214.5 °C	
Cc1nc2cc(NC(=O)c3cc4cccnc4n3-c3ccccc3)ccc2n1C	286 to 288 °C	
Cn1cnc2cc(NC(=O)c3cc4ncccc4n3Cc3cccc(F)c3)ccc21	277 to 281 °C	
Cc1nc2cc(NC(=O)c3cc4ncccc4n3Cc3cccc(F)c3)ccc2s1	263 to 265 °C	
Cn1cnc2cc(NC(=O)c3cc4cc(F)cnc4n3Cc3cccc(F)c3)ccc21 [Compound 15, N-(1-methyl-1H-benzimidazol-5-yl)-5-fluoro-1-[(3-fluorophenyl)methyl]-1H-pyrrolo[2,3-b]pyridine-2-carboxamide]		50% - (1 h)
